# According to patent US20230141284A1, “CANCER THERAPEUTIC METHOD” (ONO PHARMACEUTICAL CO., LTD., priority 2020, published 2023):
# What was measured:
# [1] = system: colon cancer cell line MC38; experiment: Anti-tumor effect in subcutaneously colon cancer cell line MC38 tumor-bearing mouse model (Example 17); type: in vivo, mice (C57/BL6); settings: 3 mg/kg, administered 7 days after transplantation, measured until Day 26
# Procedure: Seven days after transplantation, the subcutaneously MC38 tumor-bearing mice were grouped based on tumor volume, and the Vehicle group (n=8) and group to which the compound shown in Example 1 (3 mg/kg, n=6) was administered were set. The changes in tumor volume were continuously measured until 26 days after transplantation (Day 26). The tumor volume was calculated by the following formula:
# [Tumor volume (mm^3)]=[major axis (mm)]×[minor axis (mm)]^2×0.5
# [2] = system: IRF pathway; experiment: Verification of STING agonistic activity (IRF pathway in cells of PCT/EP2017/59781); type: cell-based; settings: cells described in PCT/EP2017/59781, about 24 hours incubation
# Procedure: The cells described at lines 37-39 on page 18 in the publication of PCT application with application number PCT/EP2017/59781 were suspended in RPMI medium to prepare 2×10^6 cells/mL cell suspension. 50 μL of cell suspensions were dispensed into a 96-well plate, to which 50 μL of 6 to 20,000 nM compound solutions were further added, followed by incubation at 37° C. for about 24 hours. 10 μL of the cell suspensions were collected from each well, which were mixed with 50 μL of Quanti-luc (Invivogen), and then the activity of the IRF pathway was measured by detecting luminescence using a microplate reader.
# [3] = target: T1, IDO1 (Homo sapiens, UniProt P14902); experiment: IDO1 inhibitory activity (IDO1 Fluorogenic Inhibitor Screening Assay Kit); type: biochemical; settings: compound solutions of 0.6 to 200 μmol/L added
# T1 construct: His-tag; purchased BPS Bioscience
# T1 sequence (P14902 whole entry): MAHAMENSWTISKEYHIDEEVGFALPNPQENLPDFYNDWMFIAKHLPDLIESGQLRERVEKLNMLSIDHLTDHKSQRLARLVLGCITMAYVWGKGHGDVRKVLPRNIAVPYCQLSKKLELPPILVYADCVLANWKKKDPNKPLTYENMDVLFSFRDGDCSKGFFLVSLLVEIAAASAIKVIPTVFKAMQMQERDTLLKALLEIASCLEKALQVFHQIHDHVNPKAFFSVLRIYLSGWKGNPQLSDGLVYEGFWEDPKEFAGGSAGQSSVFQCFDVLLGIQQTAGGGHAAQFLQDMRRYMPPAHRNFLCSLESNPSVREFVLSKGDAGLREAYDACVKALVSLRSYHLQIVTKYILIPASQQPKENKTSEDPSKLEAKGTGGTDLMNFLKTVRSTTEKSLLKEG
# Procedure: The evaluation of IDO1 inhibitory activity was carried out using the IDO1 Fluorogenic Inhibitor Screening Assay Kit (BPS Bioscience). Specifically, IDO1 Fluorogenic Reaction Solution was dissolved, of which 180 μL were added to each well. Then, 10 μL of the compounds at the respective concentrations of 0.6, 2, 6, 20, 60 and 200 μmol/L were added thereto. Further, after adding 10 μL of IDO1 His-Tag solution thereto, and the mixture thereof was incubated at room temperature for 1 hour, and then 20 μL of Fluorescence Solution was added thereto, and the mixture thereof was incubated at 37° C. for 4 hours. After standing them at room temperature for 10 minutes, the fluorescence was measured using a microplate reader (excitation: 400 nm, emission: 510 nm).
# [4] = system: BTK, KDR, each subtype of PKCa to t, each CDK of CDK2 to 9, FAK, TIE2, RAF1 and BRAF; experiment: Inhibitory activity against various kinases (mobility shift, LabChip); type: biochemical; settings: 4 μmol/L test substance solution (4 times the final concentration)
# Procedure: 4 μmol/L of the test substance solution (the compound pertaining to the present invention produced in Example 1) (at 4 times the final concentration) was prepared by dissolving it to the assay buffer (20 mmol/L HEPES, 0.01% Triton X-100, 1 mmol/L DTT, pH 7.5). 4 μmol/L of the substrate/ATP/metal solution (at 4 times the final concentration) was prepared by dissolving it to the kit buffer (20 mmol/L HEPES, 0.01% Triton X-100, 5 mmol/L DTT, pH 7.5). Various kinase solutions at twice the final concentration were prepared by dissolving them to the assay buffer. 5 μL of the test substance solution, 5 μL of the substrate/ATP/metal solution and 10 μL of the kinase solution were mixed in wells of a polypropylene 384-well plate, and the mixture thereof was reacted at room temperature for 1 to 5 hours. The reaction was stopped by adding 70 μL of the termination buffer (QuickScout Screening Assist MSA; Carna Biosciences). The substrate peptide and phosphorylated peptide in the reaction solution were separated and quantified by LabChip system (Perkin Elmer). The kinase reaction was evaluated based on the product ratio (P/(P+S)) calculated from the peak height (S) of the substrate peptide and the peak height (P) of the phosphorylated peptide. The various kinases used in this evaluation are as follows: BTK, KDR, each subtype of PKCa to t, each CDK of CDK2 to 9, FAK, TIE2, RAF1 and BRAF.
# [5] = system: human acute myeloid leukemia cell line MV4-11; experiment: Anti-tumor effect in subcutaneously tumor model bearing human acute myeloid leukemia cell line MV4-11; type: in vivo; settings: dosages of 1.0 mg/kg and 3.0 mg/kg; immunodeficient mice; until Day 28
# Procedure: They were grouped based on tumor volume 6 days after transplantation, and Compound A (0.3, 1.0, and 3.0 mg/kg, respectively; n=8) and Vehicle (n=8) were administered to the subcutaneously tumor-bearing mice, respectively.
# [6] = system: melanoma cell line B16F10; experiment: Combination experiments in subcutaneously melanoma cell line B16F10 tumor-bearing mice model (Example 23); type: in vivo, mice (C57/BL6); settings: until Day 30
# Procedure: • Vehicle and control antibody (rIgG1) (n=8 or 6), • Compound A (0.3 mg/kg) and control antibody (rIgG1) (n=6), • Anti-PD-1 antibody 4H2 (10 mg/kg (but 20 mg/kg only in the first dose only); n=6), and • Compound A (0.3 mg/kg) and anti-PD-1 antibody 4H2 (10 mg/kg (but 20 mg/kg only for the first dosage)) (n=6).
# In the Combination Experiment 1, Compound A was administered once 10 days after transplantation while the anti-PD-1 antibody 4H2 and control antibody were administered 4 times every 6 days since 10 days after transplantation, respectively.
# • Vehicle and control antibody (rIgG1) (n=8 or 6), • Compound A (0.3 mg/kg) and control antibody (rIgG1) (n=6), • Anti-VEGFR2 antibody DC101 (BioXCell) (10 mg/kg; n=6), and • Compound A (0.3 mg/kg) and anti-VEGFR2 antibody DC101 (10 mg/kg) (n=6).
# In the Combination Experiment 2, Compound A was administered 4 times every 7 days since 10 days after transplantation while anti-VEGFR2 antibody DC101 and control antibody were administered 7 times every 3 or 4 days once 10 days after transplantation, respectively.
# Vehicle and Compound A were administered intravenously while control antibody, anti-PD-1 antibody, and anti-VEGFR2 antibody were administered intraperitoneally, respectively.
# FIGS. 9 and 10 show results thereof.
# [7] = system: colon cancer cell line MC38; experiment: Compound A and anti-PD-1 antibody 4H2 in MC38 tumor-bearing mouse model (Example 21); type: in vivo, mice (C57/BL6)
# Procedure: Compound A was administered intravenously once 8 days after transplantation, and the anti-PD-1 antibody 4H2 was administered intraperitoneally 4 times every 6 days since 8 days after transplantation. • Vehicle (n=9), • Compound A (0.1 mg/kg; n=9), • Anti-PD-1 antibody 4H2 (10 mg/kg (but 20 mg/kg only in the first dosage); n=9), and • Compound A (0.1 mg/kg) and anti-PD-1 antibody 4H2 (10 mg/kg (but 20 mg/kg only in the first dosage); n=9).
# FIGS. 6 and 7 show results thereof.
# [8] = Conversion of a prodrug to its active body (Compound B) in mouse plasma; type: in vitro ADME; settings: 1 μmol/L, 37° C., 60 minutes
# Procedure: (§1) The solutions of the example compounds in Table 2 below (50 μmol/L, 50% acetonitrile with 5% DMSO) were added to plasma (245 μL), respectively, such that the final concentrations thereof become 1 μmol/L. After keeping them the temperature at 37° C. for 60 minutes, 40 μL of the reaction solutions were taken therefrom, and added to 200 μL of acetonitrile/ethanol (7:3) containing Candesartan (internal standard).
# (§2) The concentration of the compound prepared in Example 3 (Compound B) in the plasma resulting from the above reaction was analyzed by LC-MS/MS according to the following method.
# (§3) The whole amount was transferred to a filter plate for protein removal and filtered by suction, and the filtrate thereof was diluted 2-fold with water. [LC column] Shim-pack XR-ODSII 2.0 mm ID×75 mm (Shimadzu Corporation) [LC condition] Column temperature: 40° C. Mobile phase: A: 0.2% formic acid in 5 mM ammonium acetate solution; and
# (§4) [MS conditions] Electrospray, positive mode, multiple reaction monitoring; MS monitor ion: Compound B: m/z353.0→m/z311.2, DP: 80, CE: 35; and Candesartan (internal standard): m/z309.1→m/z163.0, DP: 71, CE: 21.
# (§5) A regression formula was calculated from the peak area ratio (peak area of Compound B/peak area of Candesartan) of the real sample and the standard sample for the calibration curve in the same matrix, and the peak area ratio of the real sample was substituted into the regression formula to calculate the quantitative value. 60 minutes later, the concentration of Compound B in the sample was compared, and the conversion rate (%) thereof was calculated using the following formula:
# (§6) Conversion rate (%)=Concentration of Compound B in the sample after 60 minutes (μmol/L)×100
# [9] = Conversion of a prodrug to its active body (Compound B) in human plasma; type: in vitro ADME; settings: 1 μmol/L, 37° C., 60 minutes
# Procedure: as §1, §2, §3, §4, §5, §6
Compound,tumor growth (tumor volume) [1],IRF activating effect [2],IDO1 inhibitory activity [3],inhibitory activity against various kinases [4],tumor growth (tumor volume) [5],anti-tumor effect of anti-VEGFR2 antibody ([6]; Compound A 0.3 mg/kg 4 times every 7 days combined with anti-VEGFR2 antibody DC101 10 mg/kg),anti-tumor effect of anti-PD-1 antibody ([6]; Compound A 0.3 mg/kg once combined with anti-PD-1 antibody 4H2 10 mg/kg (20 mg/kg first dosage)),"tumor-reducing effect ([7]; Compound A 0.1 mg/kg combined with anti-PD-1 antibody 4H2, 28 days after transplantation)",anti-tumor effect observed with anti-PD-1 antibody alone ([7]; Compound A 0.1 mg/kg i.v. once combined with anti-PD-1 antibody 4H2 10 mg/kg (20 mg/kg first dosage)),number with complete tumor remission ([7]; combination of Compound A (0.1 mg/kg) and the anti-PD-1 antibody),Plasma conversion rate Mouse [8],Plasma conversion rate Human [9]
"COC(=O)c1cc(-c2ncc(-c3cn[nH]c3)c3onc(N)c23)c(F)cc1N [Example 1, methyl 2-amino-5-(3-amino-7-(1H-pyrazol-4-yl)isoxazolo[4,5-c]pyridin-4-yl)-4-fluorobenzoate]",almost completely suppressed the tumor growth,no IRF activating effect,no IDO1 inhibitory activity,no significantly inhibit activities,–,–,–,–,–,–,–,–
"CC(=O)c1cc(-c2ncc(-c3cnn(COP(=O)(O)O)c3)c3onc(N)c23)c(F)cc1N [Example 10(1), (4-(4-(5-acetyl-4-amino-2-fluorophenyl)-3-aminoisoxazolo[4,5-c]pyridin-7-yl)-1H-pyrazol-1-yl)methyl dihydrogen phosphate]",–,–,–,–,suppressed tumor growth,enhanced,enhanced,showed the tumor-reducing effect,enhanced,5 out of 9,+ + +,+ + +
